Source: patent US7053177B1, “Random peptides that bind to gastro-intestinal tract (GIT) transport receptors and related methods” (Cytogen Corporation, priority 1997, dated 2006)
Peptide text beside a SMILES is read from it. * marks the point of attachment. Dansyl = CN(C)c1cccc2c(S(=O)(=O)*)cccc12; K(dns) = dansyl-lysine

System: P100 membrane fraction of Caco-2 cells
Experiment: Dansylated peptide ELISA: relative binding of PAX2 and HAX42 peptides to P100 fractions (ratio to ZElan021)
Settings: ratio to ZElan021 = 1.00
Method: The peptides and proteins were analyzed by a dansylated peptide ELISA method in which 96 well plates were coated overnight at 4° C. with 100 μl/well coating protein (normally 100 μg/ml P100 membrane fraction) in 0.05M carbonate buffer pH9.6. Nonspecific binding was blocked using 200 μl/well, 2% Marvel/PBS for 2 hours at 37° C. prior to incubation with dansylated peptides. The plates were washed three times with PBS/0.05% Tween 20 and after each subsequent incubation step. […] A buffer blank control was included to ensure that background binding to plastic was not due to the antibodies used in the assay system. […] Plates were developed using 75 μl/well Bionostics TMB substrate and incubated for approximately 10 minutes. The developing reaction was stopped using Bionostics Red Stop solution (25 μl/well), and the optical density of the plates was read at 650 nm. […]

Compound | Binding value at 20 μg/ml (PAX2 peptides, first column) | Binding value at 50 μg/ml (Jackson Ab) (PAX2 peptides) | Binding value at 50 μg/ml (Southern Ab) (PAX2 peptides) | Binding value at 50 μg/ml (PAX2 peptides, first column) | Binding value at 50 μg/ml (PAX2 peptides, second column) | also measured
CC[C@H](C)[C@H](NC(=O)[C@H](C)NC(=O)[C@H](CO)NC(=O)[C@@H]1CCCN1C(=O)[C@H](CCCNC(=N)N)NC(=O)[C@H](CCCNC(=N)N)NC(=O)[C@H](CC(N)=O)NC(=O)[C@H](Cc1ccccc1)NC(=O)[C@@H](NC(=O)[C@H](CCCCN)NC(=O)[C@H](CCCNC(=N)N)NC(=O)CNC(=O)[C@@H](NC(=O)[C@H](CO)NC(=O)[C@H](CC(N)=O)NC(=O)CNC(=O)[C@H](CC(N)=O)NC(=O)CNC(=O)[C@H](CS)NC(=O)[C@H](CS)NC(=O)[C@H](CC(N)=O)NC(=O)[C@H](Cc1ccc(O)cc1)NC(=O)[C@H](CC(=O)O)NC(=O)CNC(=O)[C@@H]1CCCN1C(=O)[C@@H](N)CCCCNS(=O)(=O)c1cccc2c(N(C)C)cccc12)[C@@H](C)O)C(C)C)C(=O)N1CCC[C@H]1C(=O)N[C@H](C(N)=O)[C@@H](C)O [ZElan072] (H-K(Dansyl)PGDYNCCGNGNSTGRKVFNRRPSAIPT-NH2) |  |  |  |  |  | Binding value at 20 μg/ml (HAX42 peptides): 0.83; Binding value at 50 μg/ml (HAX42 peptides, first column): 0.61; Binding value at 50 μg/ml (HAX42 peptides, second column): 0.88
CC(C)C[C@H](NC(=O)[C@H](CCCNC(=N)N)NC(=O)[C@H](CCCNC(=N)N)NC(=O)[C@H](CC(N)=O)NC(=O)[C@H](Cc1c[nH]cn1)NC(=O)[C@H](CO)NC(=O)[C@H](C)NC(=O)[C@@H](N)CCCCNS(=O)(=O)c1cccc2c(N(C)C)cccc12)C(=O)N[C@@H](CCCNC(=N)N)C(=O)N[C@H](C(=O)N[C@@H](CCCNC(=N)N)C(N)=O)[C@@H](C)O [ZElan073] (H-K(Dansyl)ASHNRRLRTR-NH2) | 0.07 | 0.66 | 0.49 | −0.11 | 0.49 | 
CC(C)C[C@H](NC(=O)[C@H](CCCNC(=N)N)NC(=O)[C@H](CCCNC(=N)N)NC(=O)[C@H](CC(N)=O)NC(=O)[C@H](Cc1c[nH]cn1)NC(=O)[C@H](C)NC(=O)[C@H](CO)NC(=O)[C@@H](N)CCCCNS(=O)(=O)c1cccc2c(N(C)C)cccc12)C(=O)N[C@@H](CCCNC(=N)N)C(=O)N[C@H](C(=O)N[C@@H](CCCNC(=N)N)C(N)=O)[C@@H](C)O [ZElan074] (H-K(Dansyl)SAHNRRLRTR-NH2) | 0.06 | 0.71 | 0.48 | 0.82 | 0.52 | 
CC(C)C[C@H](NC(=O)[C@H](CCCNC(=N)N)NC(=O)[C@H](CCCNC(=N)N)NC(=O)[C@H](CC(N)=O)NC(=O)[C@H](C)NC(=O)[C@H](CO)NC(=O)[C@H](CO)NC(=O)[C@@H](N)CCCCNS(=O)(=O)c1cccc2c(N(C)C)cccc12)C(=O)N[C@@H](CCCNC(=N)N)C(=O)N[C@H](C(=O)N[C@@H](CCCNC(=N)N)C(N)=O)[C@@H](C)O [ZElan075] (H-K(Dansyl)SSANRRLRTR-NH2) | 0.13 | 0.47 | 0.32 | 0.52 | 0.38 | 
CC(C)C[C@H](NC(=O)[C@H](CCCNC(=N)N)NC(=O)[C@H](CCCNC(=N)N)NC(=O)[C@H](C)NC(=O)[C@H](Cc1c[nH]cn1)NC(=O)[C@H](CO)NC(=O)[C@H](CO)NC(=O)[C@@H](N)CCCCNS(=O)(=O)c1cccc2c(N(C)C)cccc12)C(=O)N[C@@H](CCCNC(=N)N)C(=O)N[C@H](C(=O)N[C@@H](CCCNC(=N)N)C(N)=O)[C@@H](C)O [ZElan076] (H-K(Dansyl)SSHARRLRTR-NH2) | 0.08 | 0.60 | 0.42 | 1.00 | 0.41 | 
CC(C)C[C@H](NC(=O)[C@H](CCCNC(=N)N)NC(=O)[C@H](C)NC(=O)[C@H](CC(N)=O)NC(=O)[C@H](Cc1c[nH]cn1)NC(=O)[C@H](CO)NC(=O)[C@H](CO)NC(=O)[C@@H](N)CCCCNS(=O)(=O)c1cccc2c(N(C)C)cccc12)C(=O)N[C@@H](CCCNC(=N)N)C(=O)N[C@H](C(=O)N[C@@H](CCCNC(=N)N)C(N)=O)[C@@H](C)O [ZElan077] (H-K(Dansyl)SSHNARLRTR-NH2) | 0.20 | 0.73 | 0.52 | 0.76 | 0.54 | 
CC(C)C[C@H](NC(=O)[C@H](C)NC(=O)[C@H](CCCNC(=N)N)NC(=O)[C@H](CC(N)=O)NC(=O)[C@H](Cc1c[nH]cn1)NC(=O)[C@H](CO)NC(=O)[C@H](CO)NC(=O)[C@@H](N)CCCCNS(=O)(=O)c1cccc2c(N(C)C)cccc12)C(=O)N[C@@H](CCCNC(=N)N)C(=O)N[C@H](C(=O)N[C@@H](CCCNC(=N)N)C(N)=O)[C@@H](C)O [ZElan078] (H-K(Dansyl)SSHNRALRTR-NH2) | 0.11 | 0.68 | 0.47 | 0.87 | 0.69 | 
C[C@H](NC(=O)[C@H](CCCNC(=N)N)NC(=O)[C@H](CCCNC(=N)N)NC(=O)[C@H](CC(N)=O)NC(=O)[C@H](Cc1c[nH]cn1)NC(=O)[C@H](CO)NC(=O)[C@H](CO)NC(=O)[C@@H](N)CCCCNS(=O)(=O)c1cccc2c(N(C)C)cccc12)C(=O)N[C@@H](CCCNC(=N)N)C(=O)N[C@H](C(=O)N[C@@H](CCCNC(=N)N)C(N)=O)[C@@H](C)O [ZElan079] (H-K(Dansyl)SSHNRRARTR-NH2) | 0.31 | 0.83 | 0.53 | 0.97 | 0.68 | 
CC(C)C[C@H](NC(=O)[C@H](CCCNC(=N)N)NC(=O)[C@H](CCCNC(=N)N)NC(=O)[C@H](CC(N)=O)NC(=O)[C@H](Cc1c[nH]cn1)NC(=O)[C@H](CO)NC(=O)[C@H](CO)NC(=O)[C@@H](N)CCCCNS(=O)(=O)c1cccc2c(N(C)C)cccc12)C(=O)N[C@@H](C)C(=O)N[C@H](C(=O)N[C@@H](CCCNC(=N)N)C(N)=O)[C@@H](C)O [ZElan080] (H-K(Dansyl)SSHNRRLATR-NH2) | 0.23 | 0.67 | 0.38 | 0.84 | 0.45 | 
CC(C)C[C@H](NC(=O)[C@H](CCCNC(=N)N)NC(=O)[C@H](CCCNC(=N)N)NC(=O)[C@H](CC(N)=O)NC(=O)[C@H](Cc1c[nH]cn1)NC(=O)[C@H](CO)NC(=O)[C@H](CO)NC(=O)[C@@H](N)CCCCNS(=O)(=O)c1cccc2c(N(C)C)cccc12)C(=O)N[C@@H](CCCNC(=N)N)C(=O)N[C@@H](C)C(=O)N[C@@H](CCCNC(=N)N)C(N)=O [ZElan081] (H-K(Dansyl)SSHNRRLRAR-NH2) | 0.01 |  |  | 0.89 | 0.47 | 
CC(C)C[C@H](NC(=O)[C@H](CCCNC(=N)N)NC(=O)[C@H](CCCNC(=N)N)NC(=O)[C@H](CC(N)=O)NC(=O)[C@H](Cc1c[nH]cn1)NC(=O)[C@H](CO)NC(=O)[C@H](CO)NC(=O)[C@@H](N)CCCCNS(=O)(=O)c1cccc2c(N(C)C)cccc12)C(=O)N[C@@H](CCCNC(=N)N)C(=O)N[C@H](C(=O)N[C@@H](C)C(N)=O)[C@@H](C)O [ZElan082] (H-K(Dansyl)SSHNRRLRTA-NH2) | 0.00 |  |  | 0.92 | 0.40 | 
CC(C)C[C@H](NC(=O)[C@H](CCCNC(=N)N)NC(=O)[C@H](CO)NC(=O)[C@@H](NC(=O)[C@H](CCCCN)NC(=O)[C@H](CC(N)=O)NC(=O)[C@H](CCCNC(=N)N)NC(=O)[C@@H](NC(=O)[C@H](CC(N)=O)NC(=O)[C@H](CCCNC(=N)N)NC(=O)[C@@H](N)CCCCNS(=O)(=O)c1cccc2c(N(C)C)cccc12)[C@@H](C)O)[C@@H](C)O)C(=O)N[C@@H](CO)C(=O)N[C@@H](C)C(=O)N[C@@H](CC(N)=O)C(=O)N1CCC[C@H]1C(=O)N[C@@H](Cc1c[nH]cn1)C(=O)N[C@@H](CCCNC(=N)N)C(=O)N[C@@H](CO)C(=O)N[C@@H](Cc1c[nH]cn1)C(=O)N[C@@H](CCCNC(=N)N)C(N)=O [ZElan084] (H-K(Dansyl)RNTRNKTSRLSANPHRSHR-NH2) |  |  |  |  | 0.77 | Binding value at 20 μg/ml (PAX2 peptides, second column): 0.93
H2N-K(dns)SDHALGTNLRSDNAKEPGDYNCCGNG-CONH2 ({K(dns)}-SDHALGTNLRSDNAKEPGDYNCCGNG-NH2; cysteine pairing not given here) [ZElan06O] |  |  |  |  |  | Binding value at 20 μg/ml (HAX42 peptides): 0.44; Binding value at 50 μg/ml (HAX42 peptides, first column): 0.56; Binding value at 50 μg/ml (HAX42 peptides, second column): 0.43
H2N—K(dns)NCCGNGNSTG ({K(dns)}-NCCGNGNSTG-NH2; cysteine pairing not given here) [ZElan093] |  |  |  |  |  | Binding value at 25 μg/ml (HAX42 peptides, first column): 1.88; Binding value at 25 μg/ml (HAX42 peptides, second column): 1.37; Binding value at 25 μg/ml (HAX42 peptides, third column): 1.33
H2N—K(dns)PGDYNCCGNG ({K(dns)}-PGDYNCCGNG-NH2; cysteine pairing not given here) [ZElan092] |  |  |  |  |  | Binding value at 25 μg/ml (HAX42 peptides, first column): 1.41; Binding value at 25 μg/ml (HAX42 peptides, second column): 1.90; Binding value at 25 μg/ml (HAX42 peptides, third column): 0.91
H2N—K(dns)PGDYNCCGNGNSTG [ZElan091] |  |  |  |  |  | Binding value at 25 μg/ml (HAX42 peptides, first column): 2.02; Binding value at 25 μg/ml (HAX42 peptides, second column): 1.37; Binding value at 25 μg/ml (HAX42 peptides, third column): 1.20
